# Key:
# Format in all cases: in vivo
# [1] = system: Italian ryegrass (Lolium multiflorum); assay: Test A postemergence, visual injury rating; conditions: 0 is no effect, 100 is complete control
# Summary of the method: (§1)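 Visual 0–100 rating (100 = complete control) taken about 10 d post-treatment relative to untreated checks. Preemergence: directed soil spray on sown loam/sand pots. Postemergence: seedlings 2–10 cm, 1–2 leaf. Non-phytotoxic solvent formulation with surfactant.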
# [2] = system: barnyardgrass (Echinochloa crus-galli); assay: Test A postemergence, visual injury rating; conditions: 0 is no effect, 100 is complete control
# Summary of the method: as §1
# [3] = system: blackgrass (Alopecurus myosuroides); assay: Test A postemergence, visual injury rating; conditions: 0 is no effect, 100 is complete control
# Summary of the method: as §1
# [4] = system: corn (Zea mays); assay: Test A postemergence, visual injury rating; conditions: 0 is no effect, 100 is complete control
# Summary of the method: as §1
# [5] = system: galium (catchweed bedstraw, Galium aparine); assay: Test A postemergence, visual injury rating; conditions: 0 is no effect, 100 is complete control
# Summary of the method: as §1
# [6] = system: giant foxtail (Setaria faberii); assay: Test A postemergence, visual injury rating; conditions: 0 is no effect, 100 is complete control
# Summary of the method: as §1
# [7] = system: kochia (Kochia scoparia); assay: Test A postemergence, visual injury rating; conditions: 0 is no effect, 100 is complete control
# Summary of the method: as §1
# [8] = system: pigweed (Amaranthus retroflexus); assay: Test A postemergence, visual injury rating; conditions: 0 is no effect, 100 is complete control
# Summary of the method: as §1
# [9] = system: ragweed (common ragweed, Ambrosia elatior); assay: Test A postemergence, visual injury rating; conditions: 0 is no effect, 100 is complete control
# Summary of the method: as §1
# [10] = system: wheat (Triticum aestivum); assay: Test A postemergence, visual injury rating; conditions: 0 is no effect, 100 is complete control
# Summary of the method: as §1
# [11] = system: barnyardgrass (Echinochloa crus-galli); assay: Test B flooded paddy test, plant response rating; conditions: Echinochloa crus-galli, 312 h; 250 g ai/ha; Flood; scale of 0 to 100 where 0 is no effect and 100 is complete control; 13 to 15 days
# Summary of the method: (§2)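 Visual injury ratings against untreated controls, taken 13 to 15 days after compound was added to paddy water standing 3 cm above the soil.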
# [12] = system: ducksalad (Heteranthera limosa); assay: Test B flooded paddy test, plant response rating; conditions: Heteranthera limosa, 312 h; 250 g ai/ha; Flood; scale of 0 to 100 where 0 is no effect and 100 is complete control; 13 to 15 days
# Summary of the method: as §2
# [13] = system: rice (Oryza sativa); assay: Test B flooded paddy test, plant response rating; conditions: Oryza sativa, 312 h; 250 g ai/ha; Flood; scale of 0 to 100 where 0 is no effect and 100 is complete control; 13 to 15 days
# Summary of the method: as §2
# [14] = system: sedge, umbrella (small-flower umbrella sedge, Cyperus difformis); assay: Test B flooded paddy test, plant response rating; conditions: Cyperus difformis, 312 h; 250 g ai/ha; Flood; scale of 0 to 100 where 0 is no effect and 100 is complete control; 13 to 15 days
# Summary of the method: as §2
# [15] = system: barnyardgrass (Echinochloa crus-galli); assay: Test C preemergence, plant response rating; conditions: for Barnyardgrass plant response rating: preemergence
# [16] = system: galium (catchweed bedstraw, Galium aparine); assay: Test C postemergence, plant response rating; conditions: for Galium plant response rating: scale 0 to 100 (0 no effect, 100 complete control)
# Summary of the method: (§3)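 Both timings shared one formulation, a non-phytotoxic solvent mixture with surfactant, and a greenhouse period of 13 to 15 d. Preemergence used seeded loam/sand or silt loam soil, postemergence used 2 to 18 cm plants; visual ratings ran from 0 (no effect) to 100 (complete control).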
# [17] = system: ragweed (common ragweed, Ambrosia elatior); assay: Test C postemergence, plant response rating; conditions: for Ragweed plant response rating: scale 0 to 100 (0 no effect, 100 complete control)
# Summary of the method: as §3
# [18] = system: velvetleaf (Abutilon theophrasti); assay: Test C postemergence, plant response rating; conditions: for Velvetleaf plant response rating: scale 0 to 100 (0 no effect, 100 complete control)
# Summary of the method: as §3
# [19] = system: waterhemp (common waterhemp, Amaranthus rudis); assay: Test C postemergence, plant response rating; conditions: for Plant response rating, Waterhemp: scale 0 to 100; for Waterhemp plant response rating: scale 0 to 100 (0 no effect, 100 complete control)
# Summary of the method: as §3
# [20] = 125 g ai/ha, 0 to 100 scale, approximately 10 days
compound,measurement,setting,value
"CCCOC(=O)c1c(Br)cccc1Oc1ncc(Cl)cn1 [Compound 13, propyl 2-bromo-6-[(5-chloro-2-pyrimidinyl)oxy]benzoate]",pest or weed control at 125 g/ha,"[1]; Lolium multiflorum, post-emergence, 240 h, 125 g ai/ha, read-out: Ryegrass, Italian plant response rating (0 to 100 scale)",0%
same,pest or weed control at 500 g/ha,"[1]; Lolium multiflorum, post-emergence, 240 h, 500 g ai/ha, read-out: Ryegrass, Italian plant response rating (0 to 100 scale)",100%
same,pest or weed control at 125 g/ha,"[2]; Echinochloa crus-galli, post-emergence, 240 h, 125 g ai/ha, read-out: Barnyardgrass plant response rating (0 to 100 scale)",80%
same,pest or weed control at 500 g/ha,"[2]; Echinochloa crus-galli, post-emergence, 240 h, 500 g ai/ha, read-out: Barnyardgrass plant response rating (0 to 100 scale)",100%
same,pest or weed control at 125 g/ha,"[3]; Alopecurus myosuroides, post-emergence, 240 h, 125 g ai/ha, read-out: Blackgrass plant response rating (0 to 100 scale)",30%
same,pest or weed control at 500 g/ha,"[3]; Alopecurus myosuroides, post-emergence, 240 h, 500 g ai/ha, read-out: Blackgrass plant response rating (0 to 100 scale)",70%
same,plant injury at 125 g/ha,"[4]; Zea mays, post-emergence, 240 h, 125 g ai/ha, read-out: Corn plant response rating (0 to 100 scale)",30%
same,plant injury at 500 g/ha,"[4]; Zea mays, post-emergence, 240 h, 500 g ai/ha, read-out: Corn plant response rating (0 to 100 scale)",90%
same,pest or weed control at 125 g/ha,"[5]; Galium, post-emergence, 240 h, 125 g ai/ha, read-out: Galium plant response rating (0 to 100 scale)",100%
same,pest or weed control at 500 g/ha,"[5]; Galium, post-emergence, 240 h, 500 g ai/ha, read-out: Galium plant response rating (0 to 100 scale)",100%
same,pest or weed control at 125 g/ha,"[6]; Setaria faberi, post-emergence, 240 h, 125 g ai/ha, read-out: Foxtail, Giant plant response rating (0 to 100 scale)",80%
same,pest or weed control at 500 g/ha,"[6]; Setaria faberi, post-emergence, 240 h, 500 g ai/ha, read-out: Foxtail, Giant plant response rating (0 to 100 scale)",100%
same,pest or weed control at 125 g/ha,"[7]; Bassia scoparia, post-emergence, 240 h, 125 g ai/ha, read-out: Kochia plant response rating (0 to 100 scale)",100%
same,pest or weed control at 500 g/ha,"[7]; Bassia scoparia, post-emergence, 240 h, 500 g ai/ha, read-out: Kochia plant response rating (0 to 100 scale)",100%
same,pest or weed control at 125 g/ha,"[8]; Amaranthus retroflexus, post-emergence, 240 h, 125 g ai/ha, read-out: Pigweed plant response rating (0 to 100 scale)",90%
same,pest or weed control at 500 g/ha,"[8]; Amaranthus retroflexus, post-emergence, 240 h, 500 g ai/ha, read-out: Pigweed plant response rating (0 to 100 scale)",100%
same,pest or weed control at 125 g/ha,"[9]; Ambrosia artemisiifolia, post-emergence, 240 h, 125 g ai/ha, read-out: Ragweed plant response rating (0 to 100 scale)",0%
same,pest or weed control at 500 g/ha,"[9]; Ambrosia artemisiifolia, post-emergence, 240 h, 500 g ai/ha, read-out: Ragweed plant response rating (0 to 100 scale)",20%
same,plant injury at 125 g/ha,"[10]; Triticum aestivum, post-emergence, 240 h, 125 g ai/ha, read-out: Wheat plant response rating (0 to 100 scale)",20%
same,plant injury at 500 g/ha,"[10]; Triticum aestivum, post-emergence, 240 h, 500 g ai/ha, read-out: Wheat plant response rating (0 to 100 scale)",30%
same,pest or weed control at 250 g/ha,[11],0%
same,pest or weed control at 250 g/ha,[12],70%
same,plant injury at 250 g/ha,[13],30%
same,pest or weed control at 250 g/ha,[14],75%
same,pest or weed control at 16 g/ha,"[15]; Echinochloa crus-galli, pre-emergence, Preemergence, 16 g ai/ha, scale 0 to 100",10%
same,pest or weed control at 31 g/ha,"[15]; Echinochloa crus-galli, pre-emergence, Preemergence, 31 g ai/ha, scale 0 to 100",40%
same,Barnyardgrass plant response rating,"[15]; 4 g ai/ha, scale 0 to 100",0
same,Barnyardgrass plant response rating,"[15]; 8 g ai/ha, scale 0 to 100",0
same,pest or weed control at 4 g/ha,"[16]; Galium, post-emergence, 4 g ai/ha, scale of 0 to 100",10%
same,pest or weed control at 8 g/ha,"[16]; Galium, post-emergence, 8 g ai/ha, scale of 0 to 100",5%
same,pest or weed control at 16 g/ha,"[16]; Galium, post-emergence, 16 g ai/ha, scale 0 to 100",65%
same,pest or weed control at 31 g/ha,"[16]; Galium, post-emergence, 31 g ai/ha, scale 0 to 100",50%
same,pest or weed control at 4 g/ha,"[17]; Ambrosia artemisiifolia, post-emergence, 4 g ai/ha, scale of 0 to 100",5%
same,pest or weed control at 8 g/ha,"[17]; Ambrosia artemisiifolia, post-emergence, 8 g ai/ha, scale of 0 to 100",5%
same,pest or weed control at 16 g/ha,"[17]; Ambrosia artemisiifolia, post-emergence, 16 g ai/ha, scale 0 to 100",5%
same,pest or weed control at 31 g/ha,"[17]; Ambrosia artemisiifolia, post-emergence, 31 g ai/ha, scale 0 to 100",5%
same,pest or weed control at 4 g/ha,"[18]; Abutilon theophrasti, post-emergence, 4 g ai/ha, scale of 0 to 100",15%
same,pest or weed control at 8 g/ha,"[18]; Abutilon theophrasti, post-emergence, 8 g ai/ha, scale of 0 to 100",15%
same,pest or weed control at 16 g/ha,"[18]; Abutilon theophrasti, post-emergence, 16 g ai/ha, scale 0 to 100",20%
same,pest or weed control at 31 g/ha,"[18]; Abutilon theophrasti, post-emergence, 31 g ai/ha, scale 0 to 100",25%
N#Cc1cccc(Oc2ncc(Cl)cn2)c1CCCC(F)(F)F [Compound 72],"Ryegrass, Italian plant response rating",[1]; [20],10
same,"Ryegrass, Italian plant response rating (0 to 100 scale)",[1]; 500 g ai/ha,40
same,Barnyardgrass plant response rating (0 to 100 scale),[2]; 125 g ai/ha,80
same,Barnyardgrass plant response rating (0 to 100 scale),[2]; 500 g ai/ha,100
same,Blackgrass plant response rating (0 to 100 scale),[3]; 125 g ai/ha,30
same,Blackgrass plant response rating (0 to 100 scale),[3]; 500 g ai/ha,50
same,Corn plant response rating (0 to 100 scale),[4]; 125 g ai/ha,50
same,Corn plant response rating (0 to 100 scale),[4]; 500 g ai/ha,60
same,Galium plant response rating (0 to 100 scale),[5]; 125 g ai/ha,80
same,Galium plant response rating (0 to 100 scale),[5]; 500 g ai/ha,100
same,"Foxtail, Giant plant response rating (0 to 100 scale)",[6]; 125 g ai/ha,70
same,"Foxtail, Giant plant response rating (0 to 100 scale)",[6]; 500 g ai/ha,100
same,Kochia plant response rating,[7]; [20],100
same,Kochia plant response rating (0 to 100 scale),[7]; 500 g ai/ha,100
same,Pigweed plant response rating,[8]; [20],100
same,Pigweed plant response rating (0 to 100 scale),[8]; 500 g ai/ha,100
same,Ragweed plant response rating,[9]; [20],10
same,Ragweed plant response rating (0 to 100 scale),[9]; 500 g ai/ha,30
same,Wheat plant response rating,[10]; [20],10
same,Wheat plant response rating (0 to 100 scale),[10]; 500 g ai/ha,40
same,"Plant response rating, Barnyardgrass","[15]; Preemergence, 62 g ai/ha, scale of 0 to 100",80
same,"Plant response rating, Barnyardgrass","[15]; Preemergence, 125 g ai/ha, scale of 0 to 100",100
same,"Plant response rating, Barnyardgrass","[15]; Preemergence, 16 g ai/ha, scale 0 to 100",25
same,"Plant response rating, Barnyardgrass","[15]; Preemergence, 31 g ai/ha, scale 0 to 100",90
same,"Plant response rating, Galium","[16]; 16 g ai/ha, scale 0 to 100",80
same,"Plant response rating, Galium","[16]; 31 g ai/ha, scale 0 to 100",80
same,Galium plant response rating,[16]; 62 g ai/ha,5
same,Galium plant response rating,[16]; 125 g ai/ha,98
same,"Plant response rating, Ragweed","[17]; 16 g ai/ha, scale 0 to 100",35
same,"Plant response rating, Ragweed","[17]; 31 g ai/ha, scale 0 to 100",50
same,Ragweed plant response rating,[17]; 62 g ai/ha,40
same,Ragweed plant response rating,[17]; 125 g ai/ha,75
same,"Plant response rating, Velvetleaf","[18]; 16 g ai/ha, scale 0 to 100",40
same,"Plant response rating, Velvetleaf","[18]; 31 g ai/ha, scale 0 to 100",50
same,Velvetleaf plant response rating,[18]; 62 g ai/ha,40
same,Velvetleaf plant response rating,[18]; 125 g ai/ha,70
same,"Plant response rating, Waterhemp",[19]; 16 g ai/ha,85
same,"Plant response rating, Waterhemp",[19]; 31 g ai/ha,80
same,Waterhemp plant response rating,[19]; 62 g ai/ha,90
same,Waterhemp plant response rating,[19]; 125 g ai/ha,90
